Experimental data from patent publication US20020090352A1, “Compositions and methods for use in modulating immune system function” (priority 2000, published 2002).
Entries after “also recorded” stand apart in the source; their conditions may differ. Marks after values point to notes of the source that are not given here.

What was measured:
[1] = test system: immature LC (Langerhans cells); test: Apoptosis of immature LC, flow cytometry of PI stained nuclei (sub 2N particles) / annexin V; type: cell-based, human; settings: for induction of apoptosis / death of immature LC by the substance on its own: no TNFα; for induction of apoptosis / death of immature LC by the substance on its own / inhibition of retinoid-induced apoptosis / cell death of immature LC: result in words
[2] = test system: immature LC (Langerhans cells); test: Activation of immature LC: HLA-DR and CD86 expression by flow cytometry; type: cell-based, human; parameters: class II or CD86 upregulation on immature LC: dose or concentration left out as unconfirmed; settings: for activation of immature LC (class II / CD86, DRhi-CD86hi) in the presence of TNFα: TNFα 1-10 ng/ml
Procedure: Immature LC were cultured with retinol or vehicle and/or TNFα for 40 h. Cells were washed and incubated with HLA-DR-FITC and CD86-PE or isotype controls for 15 min at 4° C. 10^4 events were then analyzed with a FACScalibur (Becton Dickinson) using CellQuest software (Becton Dickinson). % are given for DRhi CD86hi cells gated as indicated. Data are representative of three experiments on different donors.
FIG. 3A: Day 6 immature LC were cultured for 40 h with TNFα and/or retinoids or vehicle as indicated. Cells were washed and stained with HLA-DR-FITC and CD86-PE or isotype controls for 15 min at 4° C. 10^4 events were then analyzed with a FACScalibur (Becton Dickinson) using CellQuest software (Becton Dickinson). Data are given for DRhi/CD86 hi cells gated as indicated, and are representative of 10 experiments on different donors.
Percentages of DRhi/CD86 hi cells are represented and results are expressed as the mean±SD of at last three experiments on different donors.
Flow Cytometry Analysis. 1×10^5 cells were incubated in 96-well plates (Becton Dickinson Labware, Franklin Lakes, N.J.) for 15 min at 4 ° C. in PBS, 2% human AB serum, and 0.01 M NaN3, with FITC-conjugated anti-DR (Immunotech, Marseille, France) and PE-conjugated CD86 (Pharmingen, San Diego, Calif.) at the appropriate concentration, or with control isotype-matched irrelevant mAbs at the same concentration. After washing, 10^4 events were analyzed with a FACScalibur (Becton Dickinson Immunocytometry Systems, Mountain View, Calif.) using CellQuest software.

T-cells stimulated by LC = type: cell-based, human
RARα AF2 = target: T1, RARα AF2 (Homo sapiens, UniProt P10276); settings: retinoid activity, reporter cells; cited from earlier work; note: key: '+' = agonist; '(+)' = weak agonist; '−' = antagonist; '0' = absence of agonist and antagonist activities
T1 construct: expressed in transfected cells
T1 sequence (P10276 183-417 limits assumed): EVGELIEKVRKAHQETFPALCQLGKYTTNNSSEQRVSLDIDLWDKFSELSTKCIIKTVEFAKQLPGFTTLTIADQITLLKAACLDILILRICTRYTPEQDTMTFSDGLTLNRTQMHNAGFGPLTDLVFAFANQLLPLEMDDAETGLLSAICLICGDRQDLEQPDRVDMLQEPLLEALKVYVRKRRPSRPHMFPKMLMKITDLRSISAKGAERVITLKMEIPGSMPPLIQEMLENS

RARβ AF2 = target: T2, RARβ AF2 (Homo sapiens, UniProt P10826); settings: retinoid activity, reporter cells; cited from earlier work; note: key: '+' = agonist; '(+)' = weak agonist; '−' = antagonist; '0' = absence of agonist and antagonist activities
T2 construct: expressed in transfected cells
T2 sequence (P10826 183-417 limits assumed): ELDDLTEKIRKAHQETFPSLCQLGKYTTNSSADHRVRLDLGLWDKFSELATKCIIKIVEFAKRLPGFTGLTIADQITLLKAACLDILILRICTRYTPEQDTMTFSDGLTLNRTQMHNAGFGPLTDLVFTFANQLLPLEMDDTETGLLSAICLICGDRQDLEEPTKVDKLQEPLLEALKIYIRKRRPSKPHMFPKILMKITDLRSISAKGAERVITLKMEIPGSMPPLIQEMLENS

RARγ AF2 = target: T3, RARγ AF2 (Homo sapiens, UniProt P13631); settings: retinoid activity, reporter cells; cited from earlier work; note: key: '+' = agonist; '(+)' = weak agonist; '−' = antagonist; '0' = absence of agonist and antagonist activities
T3 construct: expressed in transfected cells
T3 sequence (P13631 185-419 limits assumed): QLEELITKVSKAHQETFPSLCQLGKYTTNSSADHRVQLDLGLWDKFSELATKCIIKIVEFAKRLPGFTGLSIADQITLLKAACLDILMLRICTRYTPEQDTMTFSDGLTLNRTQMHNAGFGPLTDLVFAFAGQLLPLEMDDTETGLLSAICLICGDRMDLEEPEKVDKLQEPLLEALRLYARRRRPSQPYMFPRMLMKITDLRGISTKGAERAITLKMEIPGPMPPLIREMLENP

RXR AF2 = settings: retinoid activity, reporter cells; cited from earlier work
RXRα homodimer [(RXR)2] = target: T4, RXRα homodimer [(RXR)2] (Homo sapiens, UniProt P19793); settings: retinoid activity, transient transfection; cited from earlier work; note: key: '+' = agonist; '(+)' = weak agonist; '−' = antagonist; '0' = absence of agonist and antagonist activities
T4 construct: expressed in transfected cells
T4 sequence (P19793 1-462): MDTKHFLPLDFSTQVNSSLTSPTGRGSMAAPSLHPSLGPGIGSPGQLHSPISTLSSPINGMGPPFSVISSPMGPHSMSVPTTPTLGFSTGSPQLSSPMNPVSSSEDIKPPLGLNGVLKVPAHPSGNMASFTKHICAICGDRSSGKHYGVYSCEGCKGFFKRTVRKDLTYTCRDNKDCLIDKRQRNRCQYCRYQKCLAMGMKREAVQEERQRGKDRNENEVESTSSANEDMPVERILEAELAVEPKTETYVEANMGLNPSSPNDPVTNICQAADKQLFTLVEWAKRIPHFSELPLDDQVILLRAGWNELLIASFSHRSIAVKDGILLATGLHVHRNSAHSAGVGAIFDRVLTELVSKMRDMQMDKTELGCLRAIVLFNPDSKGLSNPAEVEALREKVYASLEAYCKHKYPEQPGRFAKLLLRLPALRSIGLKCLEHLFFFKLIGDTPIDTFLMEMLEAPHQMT

RARα-RXRα heterodimer = target: T5, RARα-RXRα heterodimer (Homo sapiens, UniProt P10276+P19793); settings: retinoid activity, transient transfection; cited from earlier work
T5 construct: expressed in transfected cells
T5 sequence (P10276 1-462): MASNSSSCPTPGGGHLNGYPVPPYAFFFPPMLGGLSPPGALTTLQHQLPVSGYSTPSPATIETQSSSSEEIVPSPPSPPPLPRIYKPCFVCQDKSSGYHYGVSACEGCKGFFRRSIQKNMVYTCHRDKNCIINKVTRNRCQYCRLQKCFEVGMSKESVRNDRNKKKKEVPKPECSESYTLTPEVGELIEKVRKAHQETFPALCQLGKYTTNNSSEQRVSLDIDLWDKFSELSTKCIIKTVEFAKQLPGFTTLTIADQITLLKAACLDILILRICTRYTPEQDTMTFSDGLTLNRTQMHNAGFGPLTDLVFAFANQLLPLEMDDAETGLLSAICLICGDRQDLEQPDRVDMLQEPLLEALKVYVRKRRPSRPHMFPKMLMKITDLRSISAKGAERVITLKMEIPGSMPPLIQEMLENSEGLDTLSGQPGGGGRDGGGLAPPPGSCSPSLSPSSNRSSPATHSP
T5 sequence (P19793 1-462): T4 sequence (P19793 1-462)

NF-κB complexes = test: Electrophoretic mobility shift assay of nuclear NF-κB complexes in immature LC; type: cell-based, human; settings: retinoid 1 μM 6 h, then TNFα 50 ng/ml 30 min; result in words
[3] = 1 nM, two days in culture, mean ± SD
[4] = 10 nM, two days in culture, mean ± SD
[5] = 100 nM, two days in culture, mean ± SD
[6] = 1 μM, two days in culture, mean ± SD
[7] = Table 3C, retinoid 1 μM in medium, no inhibitor

| Structure (SMILES) | percentage of apoptotic (<2N) particles [1, 3] | percentage of apoptotic (<2N) particles [1, 4] | percentage of apoptotic (<2N) particles ([1]; 100 nM SR11237 + 1 nM ligand) | percentage of apoptotic (<2N) particles ([1]; 100 nM SR11237 + 10 nM ligand) | percentage of apoptotic (<2N) particles ([1]; 100 nM SR11237 + 100 nM ligand) | percentage of apoptotic (<2N) particles ([1]; 100 nM SR11237 + 1 μM ligand) | percentage of apoptotic (<2N) particles [1, 5] | percentage of apoptotic (<2N) particles [1, 6] | induction of apoptosis / death of immature LC by the substance on its own [1] | RARα AF2 (RARα AF2) | RARβ AF2 (RARβ AF2) | RARγ AF2 (RARγ AF2) | RXR AF2 (RXR AF2) | (RXR)2 AF2 (RXRα homodimer [(RXR)2]) | RARα-RXR DR5 (RARα-RXRα heterodimer) | percentage of apoptotic (<2N) particles [1, 7] | activation of immature LC (class II / CD86, DRhi-CD86hi) in the presence of TNFα ([2]; result in words) | nuclear translocation / DNA-binding activity of NF-κB complexes with TNFα (NF-κB complexes) | other results |
| --- | --- | --- | --- | --- | --- | --- | --- | --- | --- | --- | --- | --- | --- | --- | --- | --- | --- | --- | --- |
| CC1(C)CC=C(c2cnc3ccccc3c2)c2cc(C(=O)Nc3ccc(C(=O)O)cc3)ccc21 [Compound II, 4-[[[5,6-Dihydro-5,5-dimethyl-8-(3-quinolinyl)-2-naphthalenyl]carbonyl]amino]benzoic acid] | ≦5% | ≦5% | ≦5% | ≦5% | ≦5% | ≦5% | ≦5% | ≦5% | did not induce | −^(a)(b) | 0 | 0 | 0 | 0 | − |  |  |  | inhibition of retinoid-induced apoptosis / cell death of immature LC [1]: inhibited retinoid-induced apoptosis; inhibition of retinoid-induced apoptosis / cell death of immature LC ([1]; listed as Compound H): inhibited; synergy with the RXR agonist SR11237 for TNFα-induced LC activation ([2]; result in words): synergized with the RXR agonist (SR11237); enhancement of antigen presentation to antigen-specific T-cells in synergy with TNFα (T-cells stimulated by LC): synergized with the RXR agonist (SR11237) |
| CC1(C)C(=O)C(C)(C)c2cc(C(=O)Nc3ccc(C(=O)O)cc3)ccc21 [Compound I, 4-[[(2,3-Dihydro-1,1,3,3-tetramethyl-2-oxo-1H-inden-5-yl)carbonyl]amino]benzoic acid] | ≦5% | ≦5% | 6 ± 3% | 25 ± 10^(a) % | 32 ± 7% | 47 ± 10% | 27 ± 9% | 37 ± 7% | apoptosis was induced | + | 0 | 0 | 0 | 0 | + | 38 ± 8% | upregulate | synergize with TNFα | percentage of apoptotic (<2N) particles ([1]; 50 nM, two days in culture, mean ± SD): 18 ± 3^(b) %; percentage of apoptotic (<2N) particles ([1]; Table 3C, Compound I 100 nM + SR11237 100 nM in medium, no inhibitor): 38 ± 5% |
| C=C(c1ccc(C(=O)O)cc1)c1cc2c(cc1C)C(C)(C)CC=C2C(C)C [Compound V, 4-[1-[5,6-Dihydro-3,5,5-trimethyl-8-(1-methylethyl)-2-naphthalenyl]ethenyl]benzoic acid] | ≦5% | ≦5% |  |  |  |  | ≦5% | ≦5% | neither SR11237 (Table 3) nor BMS749 exhibited an apoptotic effect | − | − | − | + | + | − |  | also synergized with TNFα to activate LC |  |  |
| CC1=C(/C=C/C(C)=C/C=C/C(C)=C/C(=O)O)C(C)(C)CCC1 [tRA, all-trans retinoic acid, reference compound] | ≦5% | ≦5% |  |  |  |  | 14 ± 6^(b) % | 36 ± 10% | induced a similar dose- and time-dependent increase in death | +^(a) | + | + | 0^(a) |  |  | 38 ± 10% | synergize with TNFα; also recorded: upregulate | synergize with TNFα | class II or CD86 upregulation on immature LC ([2]; in the absence or at low concentrations of TNFα): did not significantly induce |
